Results reported in patent US9586907B2, “Isothiocyanate compounds, pharmaceutical compositions, and uses thereof” (priority 2006, dated 2017).
In brackets after ≈: the same amount, converted by molar mass. Like-named read-outs stand apart in the source and are kept apart here.

Key:
[1] = tested on: MRSA (Staphylococcus aureus) BK12060; test: MIC, MRSA BK12060
[2] = tested on: Streptococcus sp., BK12235; test: MIC, Streptococcus sp., BK12235
M. tuberculosis H37Rv = test: MIC, M. tuberculosis H37Rv; format: cell-based
Description: (§1) Next, several of the bifunctional ITC compounds were tested for their ability to inhibit the growth of some clinical isolates of Mycobacteria, the results of which are summarized in Table 3 below.

[3] = tested on: MRSA (Staphylococcus aureus) BK12064; test: MIC, MRSA BK12064
[4] = tested on: Acinetobacter sp., BK12787; test: MIC, Acinetobacter sp., BK12787
[5] = tested on: Serattia marcescens BK12426; test: MIC, Serattia marcescens BK12426
[6] = tested on: Streptococcus sp., BK12233; test: MIC, Streptococcus sp., BK12233
[7] = tested on: Klebsiella pneumonii BK12260; test: MIC, Klebsiella pneumonii BK12260
[8] = tested on: Enterococcus sp., BK11936; test: MIC, Enterococcus sp., BK11936
M. fortuitum = test: MIC, M. fortuitum; format: cell-based; conditions: M. fortuitum
Bacillus cereus 4342 = test: MIC, Bacillus cereus 4342
[9] = tested on: Pseudomonas aeruginosa BK12347; test: MIC, Pseudomonas aeruginosa BK12347
[10] = tested on: Enterococcus sp., BK11940; test: MIC, Enterococcus sp., BK11940
Escherichia coli BK12336 = test: MIC, Escherichia coli BK12336
[11] = tested on: Staphylococcus epidermidis BK12798; test: MIC, Staphylococcus epidermidis BK12798
M. intracellularie = test: MIC, M. intracellularie; format: cell-based; conditions: M. intracellularie
Escherichia coli K12 = test: MIC, Escherichia coli K12
[12] = tested on: Pseudomonas aeruginosa BK12348; test: MIC, Pseudomonas aeruginosa BK12348
[13] = tested on: Acinetobacter sp., BK12786; test: MIC, Acinetobacter sp., BK12786
[14] = tested on: Serattia marcescens BK12421; test: MIC, Serattia marcescens BK12421
[15] = tested on: clinical isolates of bacteria and fungus (including yeasts); test: General antimicrobial activity, semi-quantitative score on collection of clinical isolates; format: cell-based; conditions: for General antimicrobial activity: semi-quantitative score from number of sensitive bacterial strains at 100 and 200 μM, deduced from number of sensitive bacterial species and average MIC; as to General antimicrobial activity: key: −: indicating no activity; +++++: indicating highest activity
Description: The growth inhibitory effect of a number of various ITC compounds were tested on large collection of clinical isolates of bacteria and fungus (including yeasts), in order to establish a systematic structure-activity relationship for the ITC compounds. […] To assess the average activity for an individual ITC compound, the semi-quantitative score was calculated for each compound based on the number of sensitive bacterial strains at concentrations of 100 and 200 μM.

M. cansassi = test: MIC, M. cansassi; format: cell-based; conditions: M. cansassi
Shigella sp., BK 12441 = test: MIC, Shigella sp., BK 12441; format: cell-based; conditions: Gram −, 24 hours of incubation
M. scrofulaceum = test: MIC, M. scrofulaceum; format: cell-based; conditions: M. scrofulaceum
M. tuberculosis W = test: MIC, M. tuberculosis W; format: cell-based
Description: as §1

[16] = tested on: Enterobacter cloacii BK12313; test: MIC, Enterobacter cloacii BK12313
M. tuberculosis P = test: MIC, M. tuberculosis P; format: cell-based
Description: as §1

M. avium = test: MIC, M. avium; format: cell-based; conditions: M. avium
M. bovis BCG = test: microbe, parasite or virus in culture; format: cell-based
[17] = tested on: Klebsiella pneumonii BK12261; test: MIC, Klebsiella pneumonii BK12261
Shigella sp., BK 12440 = test: MIC, Shigella sp., BK 12440; format: cell-based; conditions: Gram −, 24 hours of incubation
M. tuberculosis CDC1551 = test: MIC, M. tuberculosis CDC1551; format: cell-based
Description: as §1

[18] = tested on: Bacillus subtilis BK11590; test: MIC, Bacillus subtilis BK11590; format: cell-based; conditions: Gram +, 24 hours of incubation
M. tuberculosis W4 = test: MIC, M. tuberculosis W4; format: cell-based
Description: as §1

M. tuberculosis 210 = test: MIC, M. tuberculosis 210; format: cell-based
Description: as §1

M. tuberculosis AB = test: MIC, M. tuberculosis AB; format: cell-based
Description: as §1

[19] = tested on: Staphylococcus epidermidis BK12799; test: MIC, Staphylococcus epidermidis BK12799
[20] = Staphylococcus aureus, MRSA, 24 h
[21] = Mycobacterium tuberculosis, read-out: MIC

Work on `S=C=NCc1ccc(CN=C=S)cc1` [Compound 37] yielded an MIC [1, 20] of 8 µg/mL (≈ 36.3 µM), an MIC ([2]; Streptococcus, 24 h) of less than 0.5 µg/mL and an MIC (M. tuberculosis H37Rv; [21]) of 2 µg/mL (≈ 9.08 µM). The MIC [3, 20] was 4 µg/mL (≈ 18.2 µM), the MIC ([4]; Acinetobacter, 24 h) was greater than 64 µg/mL and the MIC ([5]; 24 h) was 64 µg/mL (≈ 290 µM). For the same molecule, the MIC ([6]; Streptococcus, 24 h) was less than 0.5 µg/mL, the MIC ([7]; Klebsiella, BK12260, 24 h) was greater than 64 µg/mL and the MIC ([8]; Enterococcus, 24 h) was 16 µg/mL (≈ 72.6 µM). It also gave an MIC (M. fortuitum; Mycolicibacterium fortuitum, read-out: MIC) of 32 µg/mL (≈ 145 µM), an MIC (Bacillus cereus 4342; Bacillus cereus, 4342, 24 h) of 2 µg/mL (≈ 9.08 µM) and an MIC ([9]; Pseudomonas aeruginosa, BK12347, 24 h) greater than 64 µg/mL. It also gave an MIC ([10]; Enterococcus, 24 h) of 16 µg/mL (≈ 72.6 µM), an MIC (Escherichia coli BK12336; Escherichia coli, BK12336, 24 h) of 8 to 16 µg/mL (≈ 36.3 to 72.6 µM) and an MIC ([11]; Staphylococcus epidermidis, BK12798, 24 h) of 0.5 µg/mL (≈ 2.27 µM). The MIC (M. intracellularie; read-out: MIC) was 32 µg/mL (≈ 145 µM), the MIC (Escherichia coli K12; Escherichia coli, K12, 24 h) was 16 µg/mL (≈ 72.6 µM) and the MIC ([12]; Pseudomonas aeruginosa, BK12348, 24 h) was greater than 64 µg/mL. It also gave an MIC ([13]; Acinetobacter, 24 h) greater than 64 µg/mL, an MIC ([14]; 24 h) of 64 µg/mL (≈ 290 µM) and an MIC ([15]; read-out: MIC values towards the microorganisms) of 1 to 4 µg/mL (≈ 4.54 to 18.2 µM). The General antimicrobial activity [15] was “+++++”, the MIC (M. cansassi; read-out: MIC) was 4 µg/mL (≈ 18.2 µM) and the MIC (Shigella sp., BK 12441; read-out: MIC) was 16 µg/mL (≈ 72.6 µM). It also gave an MIC (M. scrofulaceum; Mycobacterium scrofulaceum, read-out: MIC) of 16 µg/mL (≈ 72.6 µM), an MIC (M. tuberculosis W; [21]) of 1 µg/mL (≈ 4.54 µM) and an MIC ([16]; Enterobacter, BK12313, 24 h) greater than 64 µg/mL. For the same molecule, the MIC (M. tuberculosis P; [21]) was 2 µg/mL (≈ 9.08 µM), the MIC (M. avium; Mycobacterium avium, read-out: MIC) was 32 µg/mL (≈ 145 µM) and the MIC (M. bovis BCG; Mycobacterium tuberculosis variant bovis BCG, BCG) was 2 µg/mL (≈ 9.08 µM). The MIC ([17]; Klebsiella, BK12261, 24 h) was greater than 64 µg/mL, the MIC (Shigella sp., BK 12440; read-out: MIC) was 16 µg/mL (≈ 72.6 µM) and the MIC (M. tuberculosis CDC1551; [21]) was 4 µg/mL (≈ 18.2 µM). The MIC ([18]; read-out: MIC) was 4 µg/mL (≈ 18.2 µM), the MIC (M. tuberculosis W4; [21]) was 2 µg/mL (≈ 9.08 µM) and the MIC (M. tuberculosis 210; [21]) was 2 µg/mL (≈ 9.08 µM). The MIC (M. tuberculosis AB; [21]) was 2 µg/mL (≈ 9.08 µM) and the MIC ([19]; Staphylococcus epidermidis, BK12799, 24 h) was 0.5 µg/mL (≈ 2.27 µM).
`S=C=NCCCCCCCN=C=S` [Compound 41, S═C═N—(CH2)7—N═C═S] gave an MIC ([1]; MRSA BK12060, Gram +, 24 hours of incubation) of 4 µg/mL (≈ 18.7 µM), an MIC ([2]; Streptococcus sp., BK12235, Gram +, grown on Tryptic Soy agar medium, 24 hours) of 1 to 2 µg/mL and an MIC (M. tuberculosis H37Rv) of 2 µg/mL (≈ 9.33 µM). For the same molecule, the MIC ([3]; MRSA BK12064, Gram +, 24 hours of incubation) was 4 µg/mL (≈ 18.7 µM), the MIC ([4]; Acinetobacter sp., BK12787, Gram −, 24 hours of incubation) was 32 µg/mL (≈ 149 µM) and the MIC ([5]; Serattia marcescens BK12426, Gram −, 24 hours of incubation) was greater than 64 µg/mL. For the same molecule, the MIC ([6]; Streptococcus sp., BK12233, Gram +, grown on Tryptic Soy agar medium, 24 hours) was 1 to 2 µg/mL, the MIC ([7]; Klebsiella pneumonii BK12260, Gram −, 24 hours of incubation) was greater than 64 µg/mL and the MIC ([8]; Enterococcus sp., BK11936, Gram +, 24 hours of incubation) was 8 µg/mL (≈ 37.3 µM). For the same molecule, the MIC (M. fortuitum) was 32 µg/mL (≈ 149 µM), the MIC (Bacillus cereus 4342; Bacillus cereus 4342, Gram +, 24 hours of incubation) was 2 µg/mL (≈ 9.33 µM) and the MIC ([9]; Pseudomonas aeruginosa BK12347, Gram −, 24 hours of incubation) was 64 µg/mL (≈ 299 µM). The MIC ([10]; Enterococcus sp., BK11940, Gram +, 24 hours of incubation) was 8 µg/mL (≈ 37.3 µM), the MIC (Escherichia coli BK12336; Escherichia coli BK12336, Gram −, 24 hours of incubation) was greater than 64 µg/mL and the MIC ([11]; Staphylococcus epidermidis BK12798, Gram +, 24 hours of incubation) was 4 µg/mL (≈ 18.7 µM). It also gave an MIC (M. intracellularie) of 32 µg/mL (≈ 149 µM), an MIC (Escherichia coli K12; Escherichia coli K12, Gram −, 24 hours of incubation) greater than 64 µg/mL and an MIC ([12]; Pseudomonas aeruginosa BK12348, Gram −, 24 hours of incubation) of 64 µg/mL (≈ 299 µM). For the same molecule, the MIC ([13]; Acinetobacter sp., BK12786, Gram −, 24 hours of incubation) was 32 µg/mL (≈ 149 µM), the MIC ([14]; Serattia marcescens BK12421, Gram −, 24 hours of incubation) was greater than 64 µg/mL and the General antimicrobial activity [15] was “+++++”. For the same molecule, the MIC (M. cansassi) was 8 µg/mL (≈ 37.3 µM), the MIC (Shigella sp., BK 12441) was 64 µg/mL (≈ 299 µM) and the MIC (M. scrofulaceum) was 32 µg/mL (≈ 149 µM). It also gave an MIC (M. tuberculosis W) of 2 µg/mL (≈ 9.33 µM), an MIC ([16]; Enterobacter cloacii BK12313, Gram −, 24 hours of incubation) greater than 64 µg/mL and an MIC (M. tuberculosis P) of 4 µg/mL (≈ 18.7 µM). For the same molecule, the MIC (M. avium) was 32 µg/mL (≈ 149 µM), the MIC (M. bovis BCG) was 2 µg/mL (≈ 9.33 µM) and the MIC ([17]; Klebsiella pneumonii BK12261, Gram −, 24 hours of incubation) was greater than 64 µg/mL. It also gave an MIC (Shigella sp., BK 12440) of 64 µg/mL (≈ 299 µM), an MIC (M. tuberculosis CDC1551) of 2 µg/mL (≈ 9.33 µM) and an MIC [18] of 2 µg/mL (≈ 9.33 µM). The MIC (M. tuberculosis W4) was 2 µg/mL (≈ 9.33 µM), the MIC (M. tuberculosis 210) was 4 µg/mL (≈ 18.7 µM) and the MIC (M. tuberculosis AB) was 2 µg/mL (≈ 9.33 µM). It also gave an MIC ([19]; Staphylococcus epidermidis BK12799, Gram +, 24 hours of incubation) of 1 µg/mL (≈ 4.67 µM).
